Laboratory results: patent US20220281848A1, “PYRAZOLE-SUBSTITUTED PYRROLIDINONES AS HERBICIDES” (FMC Corporation, priority 2019, published 2022)

Tested on: plants
Test: Test D pre-emergence, other plants of Tables D1 and D3
Assay type: in vivo
Settings: preemergent, 20 DAA
Protocol: A formulation containing 50 g/L of the test chemical was prepared by dissolving the active ingredient in a mixture of organic solvents and emulsifier, details of which are provided in the table. This formulation was then mixed with a small, variable amount of acetone to aid dissolution, before addition of a 0.2% v/v aqueous solution of an adjuvant, as the aqueous diluent, to form an aqueous spray solution which contains a predetermined concentration of the active ingredient.
This aqueous spray solution was then sprayed onto plants including maize and wheat that had been seed treated with a herbicide safener, after one day's cultivation (for pre-emergence) or after about 12 days' cultivation (for post-emergence). The plants were grown from seeds sown in standard soil, placed in a glasshouse under controlled conditions (at 24/18° C. or 20/16° C., day/night; 16 h light; 65% humidity). After spray application the plants were then grown in a glasshouse under the same conditions and watered twice daily. After 15 d for post-emergence and 20 DAA for pre-emergence the test was evaluated (100=total damage to plant; 0=no damage to plant).

Structure (SMILES): CCn1nc([C@@H]2CN(C)C(=O)[C@H]2C(=O)Nc2cccc(F)c2F)c2cccc(F)c21 [Compound 14]
- damage to plant (100=total damage to plant; 0=no damage to plant), ABUTH (rate 15): 0
- damage to plant (100=total damage to plant; 0=no damage to plant), ABUTH (rate 30): 0
- damage to plant (100=total damage to plant; 0=no damage to plant), ABUTH (rate 60): 0
- damage to plant (100=total damage to plant; 0=no damage to plant), ABUTH (rate 130): 0
- damage to plant (100=total damage to plant; 0=no damage to plant), ABUTH (rate 250): 10
- damage to plant (100=total damage to plant; 0=no damage to plant), ABUTH (rate 500): 20
- damage to plant (100=total damage to plant; 0=no damage to plant), AMARE (rate 15): 0
- damage to plant (100=total damage to plant; 0=no damage to plant), AMARE (rate 30): 0
- damage to plant (100=total damage to plant; 0=no damage to plant), AMARE (rate 60): 0
- damage to plant (100=total damage to plant; 0=no damage to plant), AMARE (rate 130): 0
- damage to plant (100=total damage to plant; 0=no damage to plant), AMARE (rate 250): 0
- damage to plant (100=total damage to plant; 0=no damage to plant), AMARE (rate 500): 0
- damage to plant (100=total damage to plant; 0=no damage to plant), BIDPI (rate 15): 0
- damage to plant (100=total damage to plant; 0=no damage to plant), BIDPI (rate 30): 0
- damage to plant (100=total damage to plant; 0=no damage to plant), BIDPI (rate 60): 0
- damage to plant (100=total damage to plant; 0=no damage to plant), BIDPI (rate 130): 0
- damage to plant (100=total damage to plant; 0=no damage to plant), BIDPI (rate 250): 0
- damage to plant (100=total damage to plant; 0=no damage to plant), BIDPI (rate 500): 0
- damage to plant (100=total damage to plant; 0=no damage to plant), BRAPL (rate 15): 30
- damage to plant (100=total damage to plant; 0=no damage to plant), BRAPL (rate 30): 40
- damage to plant (100=total damage to plant; 0=no damage to plant), BRAPL (rate 60): 60
- damage to plant (100=total damage to plant; 0=no damage to plant), BRAPL (rate 130): 90
- damage to plant (100=total damage to plant; 0=no damage to plant), BRAPL (rate 250): 90
- damage to plant (100=total damage to plant; 0=no damage to plant), BRAPL (rate 500): 90
- damage to plant (100=total damage to plant; 0=no damage to plant), CYPES (rate 15): 0
- damage to plant (100=total damage to plant; 0=no damage to plant), CYPES (rate 30): 0
- damage to plant (100=total damage to plant; 0=no damage to plant), CYPES (rate 60): 0
- damage to plant (100=total damage to plant; 0=no damage to plant), CYPES (rate 130): 0
- damage to plant (100=total damage to plant; 0=no damage to plant), CYPES (rate 250): 0
- damage to plant (100=total damage to plant; 0=no damage to plant), CYPES (rate 500): 0
- damage to plant (100=total damage to plant; 0=no damage to plant), DIGSA (rate 15): 60
- damage to plant (100=total damage to plant; 0=no damage to plant), DIGSA (rate 30): 80
- damage to plant (100=total damage to plant; 0=no damage to plant), DIGSA (rate 60): 90
- damage to plant (100=total damage to plant; 0=no damage to plant), DIGSA (rate 130): 90
- damage to plant (100=total damage to plant; 0=no damage to plant), DIGSA (rate 250): 90
- damage to plant (100=total damage to plant; 0=no damage to plant), DIGSA (rate 500): 90
- damage to plant (100=total damage to plant; 0=no damage to plant), ECHCG (rate 15): 30
- damage to plant (100=total damage to plant; 0=no damage to plant), ECHCG (rate 30): 50
- damage to plant (100=total damage to plant; 0=no damage to plant), ECHCG (rate 60): 70
- damage to plant (100=total damage to plant; 0=no damage to plant), ECHCG (rate 130): 90
- damage to plant (100=total damage to plant; 0=no damage to plant), ECHCG (rate 250): 90
- damage to plant (100=total damage to plant; 0=no damage to plant), ECHCG (rate 500): 90
- damage to plant (100=total damage to plant; 0=no damage to plant), ELEIN (rate 15): 0
- damage to plant (100=total damage to plant; 0=no damage to plant), ELEIN (rate 30): 0
- damage to plant (100=total damage to plant; 0=no damage to plant), ELEIN (rate 60): 0
- damage to plant (100=total damage to plant; 0=no damage to plant), ELEIN (rate 130): 0
- damage to plant (100=total damage to plant; 0=no damage to plant), ELEIN (rate 250): 0
- damage to plant (100=total damage to plant; 0=no damage to plant), ELEIN (rate 500): 0
- damage to plant (100=total damage to plant; 0=no damage to plant), EPHHL (rate 15): 0
- damage to plant (100=total damage to plant; 0=no damage to plant), EPHHL (rate 30): 0
- damage to plant (100=total damage to plant; 0=no damage to plant), EPHHL (rate 60): 0
- damage to plant (100=total damage to plant; 0=no damage to plant), EPHHL (rate 130): 0
- damage to plant (100=total damage to plant; 0=no damage to plant), EPHHL (rate 250): 10
- damage to plant (100=total damage to plant; 0=no damage to plant), EPHHL (rate 500): 20
- damage to plant (100=total damage to plant; 0=no damage to plant), GLXMA (rate 15): 0
- damage to plant (100=total damage to plant; 0=no damage to plant), GLXMA (rate 30): 0
- damage to plant (100=total damage to plant; 0=no damage to plant), GLXMA (rate 60): 0
- damage to plant (100=total damage to plant; 0=no damage to plant), GLXMA (rate 130): 0
- damage to plant (100=total damage to plant; 0=no damage to plant), GLXMA (rate 250): 0
- damage to plant (100=total damage to plant; 0=no damage to plant), GLXMA (rate 500): 0
- damage to plant (100=total damage to plant; 0=no damage to plant), IPOHE (rate 15): 0
- damage to plant (100=total damage to plant; 0=no damage to plant), IPOHE (rate 30): 0
- damage to plant (100=total damage to plant; 0=no damage to plant), IPOHE (rate 60): 0
- damage to plant (100=total damage to plant; 0=no damage to plant), IPOHE (rate 130): 0
- damage to plant (100=total damage to plant; 0=no damage to plant), IPOHE (rate 250): 0
- damage to plant (100=total damage to plant; 0=no damage to plant), IPOHE (rate 500): 0
- damage to plant (100=total damage to plant; 0=no damage to plant), ORYSA (rate 15): 0
- damage to plant (100=total damage to plant; 0=no damage to plant), ORYSA (rate 30): 0
- damage to plant (100=total damage to plant; 0=no damage to plant), ORYSA (rate 60): 0
- damage to plant (100=total damage to plant; 0=no damage to plant), ORYSA (rate 130): 0
- damage to plant (100=total damage to plant; 0=no damage to plant), ORYSA (rate 250): 0
- damage to plant (100=total damage to plant; 0=no damage to plant), ORYSA (rate 500): 0
- damage to plant (100=total damage to plant; 0=no damage to plant), PANMI (rate 15): 0
- damage to plant (100=total damage to plant; 0=no damage to plant), PANMI (rate 30): 0
- damage to plant (100=total damage to plant; 0=no damage to plant), PANMI (rate 60): 0
- damage to plant (100=total damage to plant; 0=no damage to plant), PANMI (rate 130): 0
- damage to plant (100=total damage to plant; 0=no damage to plant), PANMI (rate 250): 30
- damage to plant (100=total damage to plant; 0=no damage to plant), PANMI (rate 500): 80
- damage to plant (100=total damage to plant; 0=no damage to plant), SETFA (rate 15): 30
- damage to plant (100=total damage to plant; 0=no damage to plant), SETFA (rate 30): 70
- damage to plant (100=total damage to plant; 0=no damage to plant), SETFA (rate 60): 80
- damage to plant (100=total damage to plant; 0=no damage to plant), SETFA (rate 130): 80
- damage to plant (100=total damage to plant; 0=no damage to plant), SETFA (rate 250): 90
- damage to plant (100=total damage to plant; 0=no damage to plant), SETFA (rate 500): 90
- damage to plant (100=total damage to plant; 0=no damage to plant), SIDSP (rate 15): 10
- damage to plant (100=total damage to plant; 0=no damage to plant), SIDSP (rate 30): 10
- damage to plant (100=total damage to plant; 0=no damage to plant), SIDSP (rate 60): 30
- damage to plant (100=total damage to plant; 0=no damage to plant), SIDSP (rate 130): 30
- damage to plant (100=total damage to plant; 0=no damage to plant), SIDSP (rate 250): 80
- damage to plant (100=total damage to plant; 0=no damage to plant), SIDSP (rate 500): 80
- damage to plant (100=total damage to plant; 0=no damage to plant), SORVU (rate 15): 0
- damage to plant (100=total damage to plant; 0=no damage to plant), SORVU (rate 30): 0
- damage to plant (100=total damage to plant; 0=no damage to plant), SORVU (rate 60): 0
